Laboratory results from patent US20240139139A1, “COMPOSITION FOR PREVENTING OR TREATING CEREBROVASCULAR DISEASE” (TOKYO METROPOLITAN INSTITUTE OF MEDICAL SCIENCE, priority 2021, published 2024).

How the values were obtained:
[1] = system: cerebral infarction models of wild-type mice; assay: Neurological symptoms (Bederson score) in wild-type mouse cerebral infarction model, 15-HETrE intraperitoneal; type: in vivo; details: 600 μg per mouse intraperitoneally 24 hours after ischemia-reperfusion, vs vehicle, FIG. 8
Description: (§1) To identify lipids associated with pathological conditions of cerebral infarction, a comprehensive analysis was performed on lipids extracted from the cerebral tissue of a mouse model of cerebral infarction. The mouse model of cerebral infarction was prepared according to the following procedure. An embolization suture with a silicone-coated tip (Ethilon (suture gauge number 7-0), Johnson & Johnson) was inserted through the common carotid artery of 8 to 24-week-old C57BL/6N mice. Cerebral temperature was maintained at 36° C., cerebral blood flow was monitored by Doppler blood flowmeter ALF21 (ADVANCE CO., LTD.), and the embolization suture was placed at the origin of the middle cerebral artery so that the cerebral blood flow in the perfused area of the middle cerebral artery was maintained at 20 to 40% of the steady state. By removing the embolization suture after 60 minutes of ischemia, the cerebral tissue was reperfused. As a control, sham-operated mice were prepared.
(§2) Then, cerebral infarction models of PLA2g2e knockout mice (Sato H., et al., 2014, Cell Metab, 20: 119-132) and wild-type mice were prepared by the same procedure as in 1 above (n=12, respectively), and neurological symptoms after ischemia-reperfusion were assessed over time in accordance with the neurological symptoms assessment score reported by Bederson, et al. (Bederson J B, et al., 1986, Stroke, 17: 472-476). […]

[2] = system: cerebral infarction models of wild-type mice; assay: Cerebral infarct volume 28 days after ischemia-reperfusion in wild-type mouse model, 15-HETrE intravenous; type: in vivo; details: 600 ng intravenously 24, 48, 72 hours, p<0.05 vs vehicle, FIG. 15
Description: as §1, with “By removing the embolization suture after 60 minutes of ischemia, the cerebral tissue was reperfused. As a control, sham-operated mice were prepared.” left out
(§3) Sections were prepared from the cerebral tissue 4 days after ischemia-reperfusion and immunohistochemistry was performed using anti-MAP2 antibody by the same procedure as in 2 above. The cerebral infarct volume was calculated based on the region that was not stained by the anti-MAP2 antibody, which is regarded as the cerebral infarct area.
(§4) Cerebral infarction models of wild-type mice were prepared (n=10) by the same procedure as in 1 above. […] The cerebral infarct volume 28 days after ischemia-reperfusion was calculated by the procedure in 6 above.

[3] = system: cerebral infarction models of wild-type mice; assay: Long-term neurological symptoms by corner test and cylinder test, 15-HETrE intravenous; type: in vivo, mouse; details: 600 ng intravenously 24, 48, 72 hours, up to 28 days, FIG. 16, 17
Description: as §1, §4
In addition, long-term neurological symptoms were evaluated over time up to 28 days after ischemia-reperfusion by a corner test and a cylinder test (Nat. Med., 2017 June; 23(6):723-732). […]

[4] = system: neurons around the infarct area; assay: RNA-seq and GO analysis of neurons around the infarct area, 15-HETrE intravenous; type: in vivo, mouse; details: wild-type mice; 600 ng intravenously 24, 48, 72 hours; day 4; RNA-seq vs vehicle; FIG. 18
Description: Cerebral infarction models of neuron-specific Padi4cKO mice and wild-type mice were prepared by the same procedure as in 1 above. At 4 days after ischemia-reperfusion, the brain was isolated after transcardial perfusion with artificial cerebrospinal fluid. The brain was sliced into 300 lam thick sections and homogenized after treated with pronase. Neurons around the infarct area were isolated using anti-Thy1.2 Antibody (BioLegend) by a cell sorter (BD FACSAria III). Single-cell RNA-seq analysis was performed using Chromium Next GEM Single Cell 3′ Kit (10× Genomics) and DNB-seq (MGI Tech), and the results of cell population clustering were visualized as a UMAP plot using Loupe Browser (10× Genomics). A gene ontology (GO) analysis was also performed for each cluster using g:profiler (https:/biit.cs.ut.ee/gprofiler/gost).
Cerebral infarction models of wild-type mice was prepared by the same procedure as in 1 above. At 24, 48, and 72 hours after ischemia-reperfusion, 15-HETrE (600 ng)/phosphate buffer was administered intravenously through the orbital venous plexus. Neurons around the infarct area were isolated from mice on day 4 after ischemia-reperfusion by the procedure in 7 above, and RNA-seq analysis was performed. The analysis results were visualized as a volcano plot using Loupe Browser, and GO analysis was performed using g:profiler. […]

[5] = system: promoter region of the mouse Padi4 gene; assay: Padi4 promoter luciferase reporter assay in Neuro2A cells; type: cell-based; details: lipids 10 μM, 24 hours, relative to untreated cells = 1, FIG. 9
Description: To identify the lipids inducing PADI4 expression, a luciferase reporter vector was prepared by incorporating the promoter region (SEQ ID NO: 5) of the mouse Padi4 gene (NCBI database accession number: NM_011061) into pGL3-Basic (Promega). The reporter vector was transfected into Neuro2A cells using PEI Max (Polysciences), and reporter cells were obtained. After reporter cells were cultured in media supplemented with lipids (10 μM final concentration) for 24 hours, the luciferase activity was measured with Luciferase Assay System (Promega). […]

[6] = system: cerebral infarction model of PLA2g2e knockout mice; assay: Cerebral infarct volume (anti-MAP2 staining) in PLA2g2e knockout mouse cerebral infarction model, oral lipid; type: in vivo; details: 1 mg orally 24, 48 and 72 hours after ischemia-reperfusion, 4 days after ischemia-reperfusion, FIG. 10
Description: as §1, with “prepared. […]” for “prepared.”
as §3

[7] = system: cerebral infarction model of PLA2g2e knockout mice; assay: Neurological symptoms over time in PLA2g2e knockout mouse cerebral infarction model, oral lipid; type: in vivo; details: 1 mg orally 24, 48, 72 hours, vs vehicle or stearic acid, p<0.001, FIG. 11
Description: as §1, with “By removing the embolization suture after 60 minutes of ischemia, the cerebral tissue was reperfused. As a control, sham-operated mice were prepared.” left out
as §2
In addition, neurological symptoms after ischemia-reperfusion were evaluated over time according to the same procedure as in 2 above.

PADI4-positive neurons = assay: Number of PADI4-positive neurons in the peri-infarct area (immunohistochemistry); type: in vivo, mouse; details: PLA2g2e knockout mice; 1 mg orally 24, 48, 72 hours; 4 days after ischemia-reperfusion; cells per visual field; FIG. 12
Description: Then, mice were perfused and fixed transcardially using a 4% paraformaldehyde solution 7 days after ischemia-reperfusion, and the brains were isolated. From the isolated cerebral tissue, sections of 1 mm thickness were prepared, embedded in paraffin, thinly sliced to 5 μm, and immunohistochemistry was performed according to an ordinary method. Anti-MAP2 antibody (Sigma-Aldrich, Cat. #M4403) (1:1000 dilution) was used as a primary antibody, and anti-mouse IgG antibody derived from goat (Jackson Immuno Research Laboratories, Inc., Cat. #115-005-003) (1:300 dilution) was used as a secondary antibody. In the figure, the scale bar indicates 1 mm, and the round linear object is an air bubble that was mixed in during the preparation of the specimen. The ischemic necrotic region (unstained region) in the cerebral infarction model of PLA2g2e knockout mice has expanded compared to the cerebral infarction model of wild-type mice. […]
Also, sections were prepared from the cerebral tissue 4 days after ischemia-reperfusion and PADI4-positive neurons were detected by immunohistochemistry by the same procedure as in 2 above, and the number of cells per visual field (approximately 0.1 square millimeter) in the pen-infarct area was counted. […]

[8] = in vivo, po; cited from earlier work

SMILES: CCCCC[C@H](O)/C=C/C=C\C/C=C\CCCCCCC(=O)O [15-HETrE, 15-hydroxyeicosatrienoic acid]
- neurological symptoms (Bederson neurological symptoms assessment score) [1]: improved
- cerebral infarct volume [2]: decreased the cerebral infarct volume
- long-term neurological symptoms (corner test and cylinder test) [3]: improved neurological symptoms up to 28 days
- expression of genes associated with neural tissue formation, neurite formation and synapse formation [4]: highly expressed

SMILES: CCCCC/C=C\C/C=C\C/C=C\CCCCCCC(=O)O [DGLA, dihomo-γ-linolenic acid]
- Padi4 promoter inducing activity (luciferase activity) [5]: induce Padi4 promoter activity
- cerebral infarct volume [6]: decreased the cerebral infarct volume
- neurological symptoms after ischemia-reperfusion [7]: improvement in neurological symptoms
- number of PADI4-positive neurons around the cerebral infarct area (PADI4-positive neurons): increased
- migration into and accumulation in cerebral tissue [8]: migrate well into the cerebral tissue and are accumulated in the cerebral tissue even by oral intake

SMILES: CCCCCCCCCCCCCCCCCC(=O)O [stearic acid, reference compound]
- cerebral infarct volume [6]: did not change the cerebral infarct volume
